Read-outs that look alike come from different tables or passages of the source.
What was measured:
[1] = cited from earlier work
[2] = pKa of TNX and cocrystal coformers (values from SciFinder); details: between CCF and TNX (pKa of TNX 4.50)
[3] = low solubility and high permeability; cited from earlier work
[4] = clinical dosage forms; cited from earlier work
[5] = Dissolution measurements (basket method, 37 °C, HPLC); type: physicochemical; details: pH 1.2 and 6.8, 37 °C
Protocol: Dissolution measurements were investigated by the basket method by using an RC12AD dissolution instrument (Tianjin Tianda Tianfa Technology Co., Ltd., Tianjin, China). According to a previous study, it is necessary that all of the particle sizes of TNX, cocrystals, and salt are at the same level when the same operation is performed on these samples. To do so, the powder samples of TNX, two cocrystals, and one salt were milled and sieved through 100-mesh sieves to minimize the size influence on the results. The temperature and rotation speed were set to 37 °C and 160 r·min^−1. The dissolution mediums were water (pH 7.0), phosphate buffer (pH 6.8), acetate buffer (pH 4.5), and hydrochloric buffer (pH 1.2). Accurately weighed samples (containing 60 mg of TNX) were each added to 900 mL of dissolution mediums. The sampling points were at 5, 10, 15, 20, 30, 45, 60, 90, 120, 180, 240, 360, 480, 600, and 720 min. The concentrations of TNX were quantified on an Agilent 1200 Series HPLC system (Agilent Technologies, Santa Clara, USA) with a Sil-Green C18 HPLC column (4.6 mm × 250 mm, 5μm) and a UV detector at a wavelength of 257 nm. The mobile phase was methanol–0.04% formic acid aqueous solution (61:39). The flow rate and column temperature were set to 1 mL·min^−1 and 25 °C.

Structure (SMILES): O=C1NS(=O)(=O)c2ccccc21 [Saccharin (SCR), Saccharin]
- pKa Value ([1]; pKa of the CCF, ref SciFinder): 1.60

Structure (SMILES): O=C(O)CCC(=O)C(=O)O [α-Ketoglutaric acid (KLA), α-Ketoglutaric acid]
- ΔpKa Value [2]: 2.12

Structure (SMILES): O=C(O)c1c(O)cccc1O [2,6-Dihydroxybenzoic acid (DHB), 2,6-Dihydroxybenzoic acid]
- ΔpKa Value [2]: 3.20
- pKa Value ([1]; pKa of the CCF, ref SciFinder): 1.30

Structure (SMILES): O=C(O)c1cc([N+](=O)[O-])cc([N+](=O)[O-])c1 [3,5-Dinitrobenzoic acid (DNB), 3,5-Dinitrobenzoic acid]
- ΔpKa Value [2]: 1.73
- pKa Value ([1]; pKa of the CCF, ref SciFinder): 2.77

Structure (SMILES): O=C(O)/C=C\C(=O)O [Maleic acid (MLA), Maleic acid]
- ΔpKa Value [2]: 2.11
- pKa Value ([1]; pKa of the CCF, ref SciFinder): 2.39

Structure (SMILES): CN1C(C(=O)Nc2ccccn2)=C(O)c2sccc2S1(=O)=O [TNX, Tenoxicam]
- BCS class [3]: class II
- half-life period [4]: 70~90 h
- pKa ([1]; TNX, source not given): 4.50

Structure (SMILES): O=C(O)CO [Glycolic acid (GLA), Glycolic acid]
- ΔpKa Value [2]: 0.76
- pKa Value ([1]; pKa of the CCF, ref SciFinder): 3.74

Structure (SMILES): Oc1ccccc1O [Pyrocatechol (PRC), Pyrocatechol]
- ΔpKa Value [2]: 5.00
- pKa Value ([1]; pKa of the CCF, ref SciFinder): 9.50

Structure (SMILES): O=C(O)CCC(=O)O [Succinic acid (SNA), Succinic acid]
- ΔpKa Value [2]: 0.26

Structure (SMILES): O=C(O)C(=O)O [Oxalic acid (OLA), Oxalic acid]
- pKa Value ([1]; pKa of the CCF, ref SciFinder): 1.38

Structure (SMILES): Oc1cccc(O)c1O [Pyrogallol (PRG), Pyrogallol]
- ΔpKa Value [2]: 4.78
- pKa Value ([1]; pKa of the CCF, ref SciFinder): 9.28

Structure (SMILES): Oc1cccc(O)c1 [Resorcinol (RSC), Resorcinol]
- ΔpKa Value [2]: 4.95
- pKa Value ([1]; pKa of the CCF, ref SciFinder): 9.45

Structure (SMILES): CN1C(C(=O)Nc2ccccn2)=C(O)c2sccc2S1(=O)=O.Nc1ccc(C(=O)O)c(O)c1 [TNX-PAS]
- solubility in dissolution measurements, comparison [5]: slightly higher than that of TNX

Structure (SMILES): Nc1ccc(C(=O)O)c(O)c1 [p-Aminosalicylic acid (PAS), p-Aminosalicylic acid]
- ΔpKa Value [2]: 0.92
- pKa Value [1]: 3.58

Structure (SMILES): O=C(O)c1ccc(O)cc1 [4-Hydroxybenzoic acid (HBA), 4-Hydroxybenzoic acid]
- ΔpKa Value [2]: 0.07
